# Experimental data as given in ChEMBL document CHEMBL1146960, “Synthesis and anticancer activity of thiosemicarbazones” (Bioorg Med Chem Lett, 2006).
# What was measured:
# SGC-7901 [1] = test: Antitumor activity against SGC7901 cell line at 1 umol/L by SRB method; assay type: functional; details: Homo sapiens
# SGC-7901 [2] = test: Antitumor activity against SGC7901 cell line at 0.1 umol/L by SRB method; assay type: functional; details: Homo sapiens
# SGC-7901 [3] = test: Antitumor activity against SGC7901 cell line at 0.01 umol/L by SRB method; assay type: functional; details: Homo sapiens
# SGC-7901 [4] = test: Antitumor activity against SGC7901 cell line at 100 umol/L by SRB method; assay type: functional; details: Homo sapiens
# SGC-7901 [5] = test: Antitumor activity against SGC7901 cell line at 10 umol/L by SRB method; assay type: functional; details: Homo sapiens
# P388 [6] = test: Antitumor activity against P388 cell line at 100 umol/L by MTT method; assay type: functional; details: Mus musculus
# P388 [7] = test: Antitumor activity against P388 cell line at 10 umol/L by MTT method; assay type: functional; details: Mus musculus
# P388 [8] = test: Antitumor activity against P388 cell line at 1 umol/L by MTT method; assay type: functional; details: Mus musculus
# P388 [9] = test: Antitumor activity against P388 cell line at 0.1 umol/L by MTT method; assay type: functional; details: Mus musculus
# P388 [10] = test: Antitumor activity against P388 cell line at 0.01 umol/L by MTT method; assay type: functional; details: Mus musculus
# A549 [11] = test: Antitumor activity against A549 cell line at 0.1 umol/L by SRB method; assay type: functional; details: Homo sapiens
# A549 [12] = test: Antitumor activity against A549 cell line at 10 umol/L by SRB method; assay type: functional; details: Homo sapiens
# A549 [13] = test: Antitumor activity against A549 cell line at 1 umol/L by SRB method; assay type: functional; details: Homo sapiens
# SGC-7901 [14] = test: Antitumor activity against SGC7901 cell line at 50 nmol/L by SRB method; assay type: functional; details: Homo sapiens
# SGC-7901 [15] = test: Antitumor activity against SGC7901 cell line at 25 nmol/L by SRB method; assay type: functional; details: Homo sapiens
# SGC-7901 [16] = test: Antitumor activity against SGC7901 cell line at 12.5 nmol/L by SRB method; assay type: functional; details: Homo sapiens
# SGC-7901 [17] = test: Antitumor activity against SGC7901 cell line at 6.25 nmol/L by SRB method; assay type: functional; details: Homo sapiens
# SGC-7901 [18] = test: Antitumor activity against SGC7901 cell line by SRB method; assay type: functional, cell-based; details: Homo sapiens
Structure (SMILES),inhibition at 1 µM (SGC-7901 [1]) [%],inhibition at 0.1 µM (SGC-7901 [2]) [%],inhibition at 0.01 µM (SGC-7901 [3]) [%],inhibition at 100 µM (SGC-7901 [4]) [%],inhibition at 10 µM (SGC-7901 [5]) [%],inhibition at 100 µM (P388 [6]) [%],inhibition at 10 µM (P388 [7]) [%],inhibition at 1 µM (P388 [8]) [%],inhibition at 0.1 µM (P388 [9]) [%],inhibition at 0.01 µM (P388 [10]) [%],inhibition at 0.1 µM (A549 [11]) [%],inhibition at 10 µM (A549 [12]) [%],inhibition at 1 µM (A549 [13]) [%],inhibition at 0.05 µM (SGC-7901 [14]) [%],inhibition at 0.025 µM (SGC-7901 [15]) [%],inhibition at 0.0125 µM (SGC-7901 [16]) [%],inhibition at 0.00625 µM (SGC-7901 [17]) [%],IC50 (SGC-7901 [18]) [nM]
COc1ccc(N/C(S)=N/N=C(/C)c2cccs2)cc1,0,0,0,65.1,29.2,25.9,5.2,6.9,3.6,0,–,–,–,–,–,–,–,–
C/C(=N/N=C(\S)N1CCN(c2ccccn2)CC1)c1nccs1,60.8,14.3,–,–,92.5,–,94.5,74.3,73.5,–,15.6,13.6,21.5,–,–,–,–,–
C/C(=N/N=C(\S)Nc1ccc(Cl)cc1)c1cccs1,0,0,0,56.7,12.7,21.6,9.9,0,0,0,–,–,–,–,–,–,–,–
CCn1cc(C(=O)O)c(=O)c2cc(F)c(N3CCN(/C(S)=N/N=C(/C)c4ccccc4)CC3)cc21,–,–,–,–,–,–,100,24.8,0,–,0,63.9,0.8,–,–,–,–,–
C/C(=N/N=C(\S)N1CCN(c2ccccn2)CC1)c1ccc([N+](=O)[O-])cc1,–,–,–,–,–,–,6.4,4.6,4.6,–,0,16.4,0,–,–,–,–,–
C/C(=N/N=C(\S)N1CCN(c2ccccn2)CC1)c1ncccn1,90,81.7,–,–,90,–,96.5,89.4,28.3,–,12.6,79.3,18.5,60.1,48.4,31.7,18.4,32
C/C(=N/NC(=S)N1CCN(c2ccccn2)CC1)c1ccccn1,–,–,–,–,–,–,100,12.8,13.8,–,24.6,100,19.7,–,–,–,–,–
C/C(=N/N=C(\S)Nc1ccc(C)cc1)c1cccs1,15,9.6,8.8,67.8,33.9,8.4,9.2,5.7,10.8,0,–,–,–,–,–,–,–,–
C/C(=N/N=C(\S)Nc1ccc([N+](=O)[O-])cc1)c1cccs1,8.3,14.5,9.1,51.7,35.7,8.6,0,2.1,3.6,10.3,–,–,–,–,–,–,–,–
C/C(=N/N=C(\S)N1CCN(c2ccccn2)CC1)c1ccc(Cl)cc1,–,–,–,–,–,–,0,0,0,–,0.8,0,0,–,–,–,–,–
C/C(=N/N=C(\S)N1CCN(c2ccccn2)CC1)c1ccc(N)cc1,–,–,–,–,–,–,30.3,4.6,12.1,–,0,46.8,0,–,–,–,–,–
C/C(=N/N=C(\S)N1CCN(c2ccccn2)CC1)c1ccccc1,–,–,–,–,–,–,4.6,0,0,–,0,0.8,0,–,–,–,–,–
C/C(=N/N=C(\S)Nc1ccccc1C)c1cccs1,5.5,0,7.1,73.5,41.6,91.9,1.3,0,5.9,0,–,–,–,–,–,–,–,–
C/C(=N/N=C(\S)Nc1cccc(Cl)c1)c1cccs1,0,0,0,86.8,39.7,51,6.5,3.7,8.3,0,–,–,–,–,–,–,–,–
CCn1cc(C(=O)O)c(=O)c2cc(F)c(N3CCN(/C(S)=N/N=C\c4ccccc4)CC3)cc21,–,–,–,–,–,–,68.8,4.6,0,–,0,4.1,0.8,–,–,–,–,–
C/C(=N/N=C(\S)N1CCN(c2ccccn2)CC1)c1ccco1,–,–,–,–,–,–,77.3,50,37.9,–,0,72.3,0,–,–,–,–,–
C/C(=N/N=C(\S)Nc1cc(Cl)cc(Cl)c1)c1cccs1,0,0,0,72.9,27.9,90.1,20.9,7,17.6,0,–,–,–,–,–,–,–,–
COc1ccc(/C(C)=N\N=C(/S)N2CCN(c3ccccn3)CC2)cc1,–,–,–,–,–,–,7.3,3.7,2.8,–,3.3,0.8,0,–,–,–,–,–
C/C(=N/N=C(\S)N1CCN(c2ccccn2)CC1)c1ccc(O)cc1,–,–,–,–,–,–,53,25.8,28.8,–,0,0,0,–,–,–,–,–
C/C(=N/N=C(\S)N1CCN(C2CCCCCC2)CC1)c1ccccn1,–,–,–,–,–,–,96.5,41.6,39.8,–,0,40,17.8,–,–,–,–,–
C/C(=N/N=C(\S)Nc1cccc2ccccc12)c1cccs1,13.5,16.5,20,55.9,24.3,30.3,4.3,7.2,0.9,0,–,–,–,–,–,–,–,–
CCn1cc(C(=O)O)c(=O)c2cc(F)c(N3CCN(/C(S)=N/N=C(/C)c4ccccn4)CC3)cc21,–,–,–,–,–,–,26.6,4.6,0,–,0,7.4,16.4,–,–,–,–,–
S=C(N/N=C\c1ccccc1)N1CCN(c2ccccn2)CC1,–,–,–,–,–,–,7.3,4.6,3.7,–,0.8,0,16.4,–,–,–,–,–
C/C(=N/N=C(\S)N1CCN(c2ccccn2)CC1)c1cccs1,7.2,1.6,12.8,96.4,94.9,100,0,15,0,0,–,–,–,–,–,–,–,–
C/C(=N/N=C(\S)N1CCN(c2ccccn2)CC1)c1ccc(C)cc1,–,–,–,–,–,–,25.8,21.2,28.8,–,0,0,0,–,–,–,–,–
C/C(=N/N=C(\S)Nc1ccccc1)c1cccs1,0,0,0,39.2,0,48,1.2,1.6,6.2,8.5,–,–,–,–,–,–,–,–
